Values after ≈ are worked out from the molar mass of the structure shown. Where two headings read alike, the source gives them in different places. Bridge positions count the residues as written; N and C are the ends. Square brackets hold non-standard residues; d marks the D form. Peptide text beside a SMILES is read from it. * marks the point of attachment. X1 = CC[C@H](C)CCCCC(=O)*; Dab = NCC[C@H](N)C(=O)O
Experiments:
[1] = test system: P. aeruginosa PA01-wt; assay: microbe, parasite or virus in culture; assay type: cell-based, Pseudomonas aeruginosa; settings: microdilution, Mueller-Hinton broth, 18 h at 37°C, read visually; for MIC: conventional antibiotics, 2–5 10^5 CFU/ml, at least three repeats (n = 3)
[2] = test system: MDR P. aeruginosa PA 910; assay: microbe, parasite or virus in culture; assay type: cell-based, Pseudomonas aeruginosa
Summary of the method: (§1)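 Inoculum 2–5 10^5 CFU/ml in Mueller-Hinton broth, compounds twofold serially diluted, polypropylene microtiter plates. Strains are MDR isolates from clinical and municipal waste water.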

[3] = test system: MDR P. aeruginosa PA253; assay: microbe, parasite or virus in culture; assay type: cell-based, Pseudomonas aeruginosa; settings: microdilution, Mueller-Hinton broth, 18 h at 37°C, read visually; for MIC: conventional antibiotics, 2–5 10^5 CFU/ml, at least three repeats (n = 3)
Summary of the method: as §1

[4] = test system: MDR P. aeruginosa PA 919; assay: microbe, parasite or virus in culture; assay type: cell-based, Pseudomonas aeruginosa; settings: microdilution, Mueller-Hinton broth, 18 h at 37°C, read visually; for MIC: conventional antibiotics, 2–5 10^5 CFU/ml, at least three repeats (n = 3)
Summary of the method: as §1

[5] = test system: MDR-PA253; assay type: cell-based, Pseudomonas aeruginosa; settings: peptide + polymyxin B; checkerboard; strain comparison (Table 7)
Description: (§2) The checkerboard assay was used to determine the fractional inhibitory concentrations (FICs), following the protocol described in Koneman’s Color Atlas and Textbook of Diagnostic Microbiology ([Winn et al., 2006]). Briefly, combinations of peptides and antibiotics were prepared in 96-well plates (polypropylene, Corning) in a twofold dilution series. After the addition of a log-phase bacterial inoculum of 2–5 × 10^5 CFU/ml, plates were incubated at 37°C for 18 h. The FICs were determined by visual inspection and the effects of the combinations were determined using the FICs. The FIC was computed by adding two partial FIC values, FICA—the MIC of drug A, tested in combination with drug B divided by the MIC of drug A, tested alone and FICB—the MIC of drug B, tested in combination with drug A divided by the MIC of drug B, tested alone [FIC = FICA + FICB = (MICAB/MICA) + (MICBA/MICB), where MICA and MICB are the MICs of drugs A and B alone, respectively, and MICAB and MICBA are the MIC concentrations of the drugs in combination]. […]

[6] = test system: MDR-PA919; assay type: cell-based, Pseudomonas aeruginosa; settings: peptide + polymyxin B; checkerboard; strain comparison (Table 7)
Description: as §2

[7] = test system: MDR isolate of P. aeruginosa (PA 910); settings: checkerboard, MHb
Description: The checkerboard assay was used to determine the fractional inhibitory concentrations (FICs), following the protocol described in Koneman’s Color Atlas and Textbook of Diagnostic Microbiology ([Winn et al., 2006]). Briefly, combinations of peptides and antibiotics were prepared in 96-well plates (polypropylene, Corning) in a twofold dilution series. After the addition of a log-phase bacterial inoculum of 2–5 × 10^5 CFU/ml, plates were incubated at 37°C for 18 h. The FICs were determined by visual inspection and the effects of the combinations were determined using the FICs. The FIC was computed by adding two partial FIC values, FICA—the MIC of drug A, tested in combination with drug B divided by the MIC of drug A, tested alone and FICB—the MIC of drug B, tested in combination with drug A divided by the MIC of drug B, tested alone [FIC = FICA + FICB = (MICAB/MICA) + (MICBA/MICB), where MICA and MICB are the MICs of drugs A and B alone, respectively, and MICAB and MICBA are the MIC concentrations of the drugs in combination]. Here we use the European Committee for Antimicrobial Susceptibility Testing (EUCAST) definition, which is very similar to the definition provided by [Odds, 2003], except Odds define additive effects when FIC values are between 0.5 and 1 ([European Committee for Antimicrobial Susceptibility Testing [EUCAST] of the European Society of Clinical Microbiology and Infectious Diseases [ESCMID], 2000]; [Odds, 2003]). The combination of peptide (drug A) and antibiotics (drug B) was defined as synergistic if the FIC was ≤ 0.5, indifferent if the FIC was > 0.5 but ≤ 4.0 and antagonistic if the FIC was > 4.0.

[8] = test system: MDR P. aeruginosa PA 927; assay: microbe, parasite or virus in culture; assay type: cell-based, Pseudomonas aeruginosa; settings: conventional antibiotics, microdilution, Mueller-Hinton broth, 2–5 10^5 CFU/ml, 18 h at 37°C, read visually, at least three repeats (n = 3)
Summary of the method: as §1

[9] = test system: MDR P. aeruginosa PA 915; assay: microbe, parasite or virus in culture; assay type: cell-based, Pseudomonas aeruginosa; settings: conventional antibiotics, microdilution, Mueller-Hinton broth, 2–5 10^5 CFU/ml, 18 h at 37°C, read visually, at least three repeats (n = 3)
Summary of the method: as §1

[10] = test system: MDR P. aeruginosa PA 923; assay: microbe, parasite or virus in culture; assay type: cell-based, Pseudomonas aeruginosa; settings: conventional antibiotics, microdilution, Mueller-Hinton broth, 2–5 10^5 CFU/ml, 18 h at 37°C, read visually, at least three repeats (n = 3)
Summary of the method: as §1

[11] = Pseudomonas aeruginosa, 18 h, antibiotic alone, as listed in the FIC table, read-out: MIC against PA910 in μM (antibiotics, head of Table 4)
[12] = Pseudomonas aeruginosa, conventional antibiotics, microdilution, Mueller-Hinton broth, 2–5 10^5 CFU/ml, 18 h at 37°C, read visually, at least three repeats (n = 3), read-out: MIC PA 910

With CC[C@H](C)[C@H](NC(=O)[C@H](CCCNC(=N)N)NC(=O)[C@H](C)NC(=O)[C@H](CC(C)C)NC(=O)[C@@H](N)CCCNC(=N)N)C(=O)N[C@H](C(=O)N[C@H](C(=O)N[C@H](C(=O)N[C@@H](CCCNC(=N)N)C(=O)N[C@H](C(=O)N[C@@H](CCCNC(=N)N)C(=O)N[C@@H](CCCNC(=N)N)C(N)=O)C(C)C)[C@@H](C)CC)C(C)C)C(C)C [Peptide R11] (H-RLARIVVIRVRR-NH2) the “MIC against PA01 wt” value ([1]; short AMPs, triplicate (n = 3)) was 16 µM (≈ 24.1 µg/mL), the “MIC against PA910 in μM (peptides, Table 4)” value ([2]; peptide alone, as listed in the FIC table) was 64 µM and the “MIC against MDR isolates of PA, PA253” value ([3]; short AMPs, triplicate (n = 3)) was 64 µM. The “MIC against MDR isolates of PA, PA919” value ([4]; short AMPs, triplicate (n = 3)) was 32 µM, the “FIC against polymyxin B, MDR-PA253” value [5] was 0.56 and the “FIC against polymyxin B, MDR-PA919” value [6] was 0.56. For the same compound, the “FIC mean (SD), combination with KAN” value ([7]; confirmation study, peptide + kanamycin, Indopt versions 1/8 MHb, mean of at least three measurements (n = 3), SD in brackets) was 0.75 (0.17), the “FIC mean (SD), combination with TET” value ([7]; confirmation study, peptide + tetracycline, Indopt versions 1/8 MHb, mean of at least three measurements (n = 3), SD in brackets) was 0.43 (0.12) and the “FIC, combination with AMI” value ([7]; peptide + amikacin, for the Indopt versions 1/8 MHb, 2–5 × 10^5 CFU/ml, 37°C, 18 h, visual, determined once (n = 1)) was 2. The “FIC, combination with CEF” value ([7]; peptide + cefepime, for the Indopt versions 1/8 MHb, 2–5 × 10^5 CFU/ml, 37°C, 18 h, visual, determined once (n = 1)) was 2, the “FIC, combination with CET” value ([7]; peptide + ceftazidime, for the Indopt versions 1/8 MHb, 2–5 × 10^5 CFU/ml, 37°C, 18 h, visual, determined once (n = 1)) was 1 and the “FIC, combination with CIP” value ([7]; peptide + ciprofloxacin, for the Indopt versions 1/8 MHb, 2–5 × 10^5 CFU/ml, 37°C, 18 h, visual, determined once (n = 1)) was 0.53. The “FIC, combination with ERY” value ([7]; peptide + erythromycin, for the Indopt versions 1/8 MHb, 2–5 × 10^5 CFU/ml, 37°C, 18 h, visual, determined once (n = 1)) was 0.53, the “FIC, combination with IMI” value ([7]; peptide + imipenem, for the Indopt versions 1/8 MHb, 2–5 × 10^5 CFU/ml, 37°C, 18 h, visual, determined once (n = 1)) was 0.63 and the “FIC, combination with KAN” value ([7]; peptide + kanamycin, for the Indopt versions 1/8 MHb, 2–5 × 10^5 CFU/ml, 37°C, 18 h, visual, determined once (n = 1)) was 0.5. The “FIC, combination with MER” value ([7]; peptide + meropenem, for the Indopt versions 1/8 MHb, 2–5 × 10^5 CFU/ml, 37°C, 18 h, visual, determined once (n = 1)) was 0.51, the “FIC, combination with PIP” value ([7]; peptide + piperacillin, for the Indopt versions 1/8 MHb, 2–5 × 10^5 CFU/ml, 37°C, 18 h, visual, determined once (n = 1)) was 1 and the “FIC, combination with PMB” value ([7]; peptide + polymyxin B, for the Indopt versions 1/8 MHb, 2–5 × 10^5 CFU/ml, 37°C, 18 h, visual, determined once (n = 1)) was 0.63. The “FIC, combination with TET” value ([7]; peptide + tetracycline, for the Indopt versions 1/8 MHb, 2–5 × 10^5 CFU/ml, 37°C, 18 h, visual, determined once (n = 1)) was 0.53 and the “FIC, combination with TOB” value ([7]; peptide + tobramycin, for the Indopt versions 1/8 MHb, 2–5 × 10^5 CFU/ml, 37°C, 18 h, visual, determined once (n = 1)) was 2.
For CC[C@H](C)CCCCC(=O)N[C@@H](CCN)C(=O)N[C@H](C(=O)N[C@@H](CCN)C(=O)N[C@H]1CCNC(=O)[C@H]([C@@H](C)O)NC(=O)[C@H](CCN)NC(=O)[C@H](CCN)NC(=O)[C@H](CC(C)C)NC(=O)[C@@H](Cc2ccccc2)NC(=O)[C@H](CCN)NC1=O)[C@@H](C)O [Polymyxin B] (X1-[Dab]T[Dab][Dab][Dab][dF]L[Dab][Dab]T; lactam 4-C (inferred); N-terminus assumed), the MIC [1] was 0.125 µM (≈ 0.15 µg/mL), the MIC [8] was 0.25 µM (≈ 0.301 µg/mL) and the MIC [9] was 0.25 µM (≈ 0.301 µg/mL). The MIC ([2]; antibiotic alone, as listed in the FIC table, read-out: MIC against PA910 in μM (antibiotics, head of Table 4)) was 0.13 µM, the MIC ([2]; conventional antibiotics, microdilution, Mueller-Hinton broth, 2–5 10^5 CFU/ml, 18 h at 37°C, read visually, at least three repeats (n = 3), read-out: MIC PA 910) was 0.125 µM (≈ 0.15 µg/mL) and the MIC [10] was 0.25 µM (≈ 0.301 µg/mL). The MIC [3] was 0.125 µM (≈ 0.15 µg/mL) and the MIC [4] was 0.125 µM (≈ 0.15 µg/mL).
With CN(C)[C@@H]1C(O)=C(C(N)=O)C(=O)[C@@]2(O)C(O)=C3C(=O)c4c(O)cccc4[C@@](C)(O)[C@H]3C[C@@H]12 [Tetracyclin] the MIC ([1]; Pseudomonas aeruginosa, PA01WT) was 8 µM (≈ 3.56 µg/mL), the MIC ([8]; Pseudomonas aeruginosa) was 16 µM (≈ 7.11 µg/mL) and the MIC ([9]; Pseudomonas aeruginosa) was 16 µM (≈ 7.11 µg/mL). The MIC [2, 11] was 64 µM, the MIC [2, 12] was 64 µM (≈ 28.4 µg/mL) and the MIC ([10]; Pseudomonas aeruginosa) was > 512 µM. It also gave an MIC ([3]; Pseudomonas aeruginosa) of 32 µM (≈ 14.2 µg/mL) and an MIC ([4]; Pseudomonas aeruginosa) of 32 µM (≈ 14.2 µg/mL).
NC[C@H]1O[C@H](O[C@H]2[C@H](O)[C@@H](O[C@H]3O[C@H](CO)[C@@H](O)[C@H](N)[C@H]3O)[C@H](N)C[C@@H]2N)[C@H](N)C[C@@H]1O [Tobramycin] gave an MIC ([1]; Pseudomonas aeruginosa, PA01WT) of 0.25 to 0.5 µM (≈ 0.117 to 0.234 µg/mL), an MIC ([8]; Pseudomonas aeruginosa) of 32 µM (≈ 15 µg/mL) and an MIC ([9]; Pseudomonas aeruginosa) of 64 µM (≈ 29.9 µg/mL). For the same compound, the MIC [2, 11] was 32 µM, the MIC [2, 12] was 32 µM (≈ 15 µg/mL) and the MIC ([10]; Pseudomonas aeruginosa) was 32 µM (≈ 15 µg/mL). For the same compound, the MIC ([3]; Pseudomonas aeruginosa) was 64 µM (≈ 29.9 µg/mL) and the MIC ([4]; Pseudomonas aeruginosa) was 64 µM (≈ 29.9 µg/mL).
With Kanamycin the MIC [1] was 64 µM, the MIC [8] was 128 µM and the “MIC PA 915” value [9] was 256 to 512 µM. For the same compound, the “MIC against PA910 in μM (antibiotics, head of Table 4)” value ([2]; antibiotic alone, as listed in the FIC table) was 128 to 256 µM, the “MIC PA 910” value ([2]; conventional antibiotics, microdilution, Mueller-Hinton broth, 2–5 10^5 CFU/ml, 18 h at 37°C, read visually, at least three repeats (n = 3)) was 128 to 256 µM and the MIC [10] was 256 µM. For the same compound, the MIC [3] was >512 µM and the MIC [4] was 128 µM.
